The record followed here is patent publication US10532085B2, “Methods for increasing intracellular activity of Hsp70” (Orphazyme A/S, priority 2010, dated 2020).

Assay [1] concerns MCF-7-LC3-EGFP cells. As to the kind of experiment: Autophagy induction (LC3-EGFP translocation). The class given is cell-based, human. Conditions: 20 μg/mL added to culture medium. The text has this: FIG. 11: rhHSP70 induces autophagy in MCF-7-LC3-EGFP cells.
In assay [2] the test system is NPDA cells. Put plainly: Lysosomal stability in NPDA cells. The class given is cell-based, Human. On the procedure: BMP binds ASM with high affinity and stimulates its ability to hydrolyze sphingomyelin to ceramide and phosphorylcholine. […] In order to test whether ASM is responsible for the lysosome stabilizing effect we treated the cells with desipramine, a well characterized pharmacological ASM inhibitor. […] It should be noted that akin to rHsp70, also rASM localized to the lysosomes.
Sub-confluent cells incubated with 2 μg/ml acridine orange for 15 min at 37° C. were washed, irradiated and analyzed in Hanks balanced salt solution complemented with 3% fetal calf serum. Cells for single cell imaging were selected from 8 pre-defined areas of each well in transmitted light-mode after which the same cells were immediately visualized and exposed to blue light from USH102 100W mercury arc burner (Ushio electric) installed in a U-ULS100HG housing (Olympus) for 20 sec. Fluorescence microscopy was performed on Olympus IX-70 inverted microscope with a LCPlanF1 ×20 objective with NA=0.40. Loss of lysosomal pH gradient was quantified by counting the loss of intense red staining. A more elaborate method for assaying lysosomal integrity was developed to handle the larger lysosomal compartment of the various fibroblasts used in this study. […] The resulting timelapse movies where subsequently analysed by the integrated Zeiss LSM DUO software.

Assay [3] can be described thus: Surface plasmon resonance (BIAcore) BMP interaction. It counts as binding. Conditions: acidic pH. From the text: (§1) Thus, we investigated the interaction of Hsp70 with palmitoyl-oleoyl-phosphatidylcholine (POPC) large unilamellar vesicles (LUVs) containing various membrane-associated anionic lipids, i.e. palmitoyl-oleoyl-phosphatidylserine (POPS; primarily in plasma membrane), cardiolipin (primarily mitochondrial) and BMP (primarily in late endosomes/lysosomes). Taking into account the increasingly acidic milieu of the endo-lysosomal compartment upon maturation to lysosomes, we compared the protein-lipid interactions in neutral (pH 7.4) and acidic (pH 6.0) conditions. […] As reported earlier for POPS, all negatively charged lipids enhanced the binding of rHsp70 to the liposomes at neutral pH approximately 4-fold irrespective of the charge density on the liposome surface (ranging from −1 to −2).
In order to investigate which part of the Hsp70 protein is responsible for the BMP binding, we measured the fluorescence shift of the tryptophans upon docking of rHsp70 and its mutants into BMP-containing liposomes. […] Next, we substituted the two tryptophans in Hsp70 with phenylalanines (W90F and W580F) and studied which tryptophan is responsible for the fluorescence shift induced by lipid binding. […] A more quantitative BIAcore analysis of the BMP—rHsp70 interaction confirmed that Hsp70 interacted with BMP mainly through its ATPase domain. […]

The test system of assay [4] is primary fibroblasts from Niemann-Pick Disease type C1 patient. Put plainly: Lysosomal cross-sectional area, laser confocal microscopy, NPC1 fibroblasts. The class given is cell-based, human. Conditions: Alexa Fluor 488 labelled, added for 48 h; GM17918. The method, then: FIG. 7: Test of rhHSP70 in non-sphingolipidosis. rhHSP70 labelled with Alexa Fluor 488 (for visualization of uptake) was added for 48 h to primary fibroblasts from Niemann-Pick Disease type C1 patient (Coriell Cell Repository ID: GM17918). Read-out: lysosomal cross-sectional area (Primary cellular pathology), performed by laser confocal microscopy.

The test system of assay [5] is NPC−/− mice. Put plainly: NPC1 in vivo pilot study: growth curves. The following applies: 10 mg/kg IP three times per week from 3 weeks of age vs PBS. On the procedure: FIG. 12: Control NPC−/− mice (A) have shallower and more sporadic growth patterns than HSP70 treated mice (B). Points where growth curves stop abruptly, indicates mice killed for organs. In panel A: Series 1 and 3 are female; Series 2 and 5-8 are male. In panel B: Series 2 and 4-7 are female; Series 1, 3, and 8 are male.
Eight treated (rHSP70) NPC^−/− versus eight control (PBS only) NPC^−/− controls. Mice were treated IP three times per week with either 10 mg/kg of rHSP70 or vehicle alone (PBS) from 3 weeks of age. Three control and three treated mice were sacrificed at 7 or 9 weeks old (i.e. after 4 or 6 weeks of treatment, respectively). Organs were perfused (PBS), weighed and frozen for biochemical and immunohistochemical analysis.

The nature of assay [6]: Liposome 90° light scattering, POPC liposomes. The class given is binding. Conditions: pH 7.4.
Description: as §1
(§2) The tryptophan fluorescence spectra (RFI) and liposome 90° light scattering (RSI) were analyzed in a HEPES buffer (20 mM HEPES, 0.1 mM EDTA, pH 7.4 or 6.0 as indicated) employing LUVs consisting of indicated lipids essentially as described in the art. For the RFI, LUVs were added in 10 μM aliquots and spectra recorded after a 20 min stabilization period. For the RSI, recombinant proteins were added in 0.12 nmol aliquots.

A short description of assay [7]: Liposome 90° light scattering, LUVs with negatively charged lipids. The class given is binding. Conditions: neutral pH; irrespective of charge density (−1 to −2).
Description: as §1, §2

Turning to “rHsp70: recombinant (human) heat shock protein 70; in some tests labelled with Alexa Fluor 488”, the “translocation and accumulation of LC3-EGFP (marker for macroautophagy)” value in assay [1] is “leads to translocation and accumulation of LC3-EGFP”. The “stabilization of lysosomes in NPDA cells” value in assay [2] is on record as “stabilize the lysosomes”. Besides, the “interaction with BMP (BIAcore)” value in assay [3] was “high affinity binding”. For the same substance, the “lysosomal cross-sectional area (primary cellular pathology)” value in assay [4] is listed as “effectively reverts the lysosomal primary pathology”. For the same substance, the “growth curves (body weight)” value in assay [5] was “rise more steadily and reach higher weights”. Besides, the “binding (relative change in 90° light scattering)” value in assay [6] is “very weak binding”. Besides, the “enhancement of binding to liposomes by negatively charged lipids” value in assay [7] was “approximately 4 fold”.
